Experimental data from publication PMC6944458, “Intracellular and in vivo evaluation of imidazo[2,1-b]thiazole-5-carboxamide anti-tuberculosis compounds” (PLoS ONE, 2020).
≈ marks a conversion by molar mass, not a printed value. Where “and” joins values, the source holds several entries; their conditions need not be identical. Equal entries are not always repeated. Where two headings read alike, the source gives them in different places.

Tests used:
[1] = cited from earlier work
[2] = tested on: M. tuberculosis GC1237 (Mtb-GFP) in Raw 264.7 macrophages; assay: Intracellular mycobacterial replication assay in macrophages; format: cell-based; conditions: Mycobacterium tuberculosis, 120 h, 5 days, read-out: MIC, intracellular M. tuberculosis growth in macrophages
[3] = tested on: M. tuberculosis GC1237 (Mtb-GFP) in Raw 264.7 macrophages; conditions: cited from earlier work
VERO cell line = assay: Eukaryotic cytotoxicity (CellTiter-Glo); format: cell-based, African green monkey; conditions: Chlorocebus sabaeus, 48 h, 2-day incubation, read-out: VERO Toxicity IC50
Protocol: Cytotoxicity was tested against the African green monkey adult kidney cell line (VERO, ATCC CRL-1586) as described. Compounds were tested as 10-point, 3-fold serial dilutions in DMSO (final assay concentration of 1% DMSO) and viability was measured using CellTiter-Glo (Promega). Inhibition curves were fitted using the Levenberg–Marquardt algorithm. IC50 was defined as the concentration required to reduce cell viability by 50% after 2-day incubation.

H37Rv-Mtb = assay: MIC against replicating H37Rv-Mtb in liquid media; format: cell-based, Mycobacterium tuberculosis; conditions: for MIC: replicating, 5 days, OD590
[4] = cited from earlier work; remark: listed apart in the source
M. tuberculosis Erdman = assay: Chronic Balb/c model of TB infection; format: in vivo, Balb/c mice; conditions: 25 mg/kg
replicating Mtb = conditions: against three family strains; cited from earlier work
physchem = conditions: pH 6.8, aqueous buffer, kinetic from dmso stock
Protocol: The relative solubility of compounds was determined in microbiological medium using turbidity as a measure [27]. A serial dilution of compounds was prepared in DMSO and then transferred to microbiological medium at pH 6.8.

[5] = tested on: M. tuberculosis strain H37Rv-LUX; assay: microbe, parasite or virus in culture; format: cell-based; conditions: Mycobacterium tuberculosis, read-out: LORA MIC
[6] = tested on: murine Raw 264.7 macrophages; conditions: mouse
[7] = in vivo; cited from earlier work
[8] = Mycobacterium tuberculosis, H37RV, 120 h

## O=C(/C=C/c1cccs1)N1CCN(Cc2ccc3c(c2)OCO3)CC1 [AX-35]
[1]
  MIC: 0.14 μM and 0.05 μg/mL

## C[C@H]1COC2(CCN(c3nc(=O)c4cc(C(F)(F)F)cc([N+](=O)[O-])c4s3)CC2)O1 [BTZ043, reference compound]
[2]
  MIC: 0.0078 µM (≈ 0.00336 µg/mL)
[3]
  MIC, intracellular, previous reports: < 0.098 µM
VERO cell line
  IC50: > 50 µM
H37Rv-Mtb; [8]
  MIC: 0.002 µM (≈ 0.000863 µg/mL)

## NC(=O)c1sc(N2CCOCC2)cc1OCCc1ccc(OC(F)(F)F)cc1 [Compound 6]
[4]
  MIC: 0.2 µM (≈ 0.0833 µg/mL)

## NNC(=O)c1ccncc1 [INH, Isoniazid]
M. tuberculosis Erdman; 4 weeks
  Log reduction vs Control (Lung): 1.73 log10 CFU
  Log reduction vs Control (Spleen): 2.87 log10 CFU
M. tuberculosis Erdman; ERDMAN, 672 h
  Lung Log10 CFU ±SEM: 4.06 ± 0.11 Log10 CFU
  Spleen Log10 CFU ±SEM: 2.13 ± 0.12 Log10 CFU

## Cc1c(OCC(F)(F)F)ccnc1CSc1nc2ccccc2[nH]1 [LPZS]
Replicating Mtb
  IC90: 1.1 to 1.7 µM

## Cc1cn2c(C(=O)NCc3ccc4c(c3)CCO4)c(C)nc2s1 [ND-11459, N-((2,3-Dihydrobenzofuran-5-yl)methyl)-2,6-dimethylimidazo[2,1-b]thiazole-5-carboxamide]
[2]
  MIC: 1.25 to 2.5 µM (≈ 0.409 to 0.819 µg/mL)
physchem
  solubility: ≥ 200 µM
[5]
  MIC: 12.4 µM (≈ 4.06 µg/mL)
[6]
  Macrophage toxicity concentration relative to MIC: 4 and 8-fold higher than their MIC
VERO cell line
  IC50: > 50 µM

## CCc1nc2sc(C)cn2c1C(=O)NCc1ccc2c(c1)CCO2 [ND-11503, N-((2,3-Dihydrobenzofuran-5-yl)methyl)-6-ethyl-2-methylimidazo[2,1-b]thiazole-5-carboxamide]
[2]
  MIC: 1.25 to 2.5 µM (≈ 0.427 to 0.854 µg/mL)
physchem
  solubility: ≥ 200 µM
[5]
  MIC: 2.7 µM (≈ 0.922 µg/mL)
VERO cell line
  IC50: > 50 µM
H37Rv-Mtb; [8]
  MIC: 0.25 to 0.54 µM (≈ 0.0854 to 0.184 µg/mL)
H37Rv-Mtb
  MIC: 0.25 µM (≈ 0.0854 µg/mL)

## Cc1cn2c(C(=O)NCc3ccc(Oc4cccc(C(F)(F)F)c4)cc3)c(C)nc2s1 [ND-11564, 2,6-Dimethyl-N-(4-(3-(trifluoromethyl)phenoxy)benzyl)imidazo[2,1-b]thiazole-5-carboxamide]
[2]
  MIC: 0.25 µM (≈ 0.111 µg/mL)
physchem
  solubility: 100 µM (≈ 44.5 µg/mL)
[5]
  MIC: 9.68 µM (≈ 4.31 µg/mL)
[6]
  Macrophage toxicity concentration relative to MIC: 4 and 8-fold higher than their MIC
VERO cell line
  IC50: > 50 µM
H37Rv-Mtb; [8]
  MIC: 0.16 µM (≈ 0.0713 µg/mL)
H37Rv-Mtb
  MIC: 0.16 µM (≈ 0.0713 µg/mL)

## Cc1cn2c(C(=O)Nc3ccc(Oc4cccc(C(F)(F)F)c4)cc3)c(C)nc2s1 [ND-11566, 2,6-Dimethyl-N-(4-(3-(trifluoromethyl)phenoxy)phenyl)imidazo[2,1-b]thiazole-5-carboxamide]
physchem
  solubility: 50 µM (≈ 21.6 µg/mL)
[5]
  MIC: > 100 µM
VERO cell line
  IC50: > 50 µM
H37Rv-Mtb; MIC H37Rv-Mtb comparison
  Fold difference in potency, anilide vs benzylic amide ND-11564: > 50 fold
H37Rv-Mtb; [8]
  MIC: 9.1 µM (≈ 3.93 µg/mL)
H37Rv-Mtb
  MIC: 9.10 µM (≈ 3.93 µg/mL)

## Cc1cn2c(C(=O)NCc3ccc(N4CCS(=O)(=O)CC4)c(F)c3)c(C)nc2s1 [ND-11903, N-(4-(1,1-Dioxidothiomorpholino)-3-fluorobenzyl)-2,6-dimethylimidazo[2,1-b]thiazole-5-carboxamide]
physchem
  solubility: > 200 µM
[5]
  MIC: 200 µM (≈ 87.3 µg/mL)
VERO cell line
  IC50: > 50 µM
H37Rv-Mtb; MIC H37Rv-Mtb comparison
  Fold less active than the most potent lipophilic compounds (ND-11543, ND-11564): > 100 fold
H37Rv-Mtb; [8]
  MIC: 3.7 µM (≈ 1.62 µg/mL)

## Cc1cn2c(C(=O)NCc3ccc(N4CCS(=O)(=O)CC4)cc3)c(C)nc2s1 [ND-12015, N-(4-(1,1-Dioxidothiomorpholino)benzyl)-2,6-dimethylimidazo[2,1-b]thiazole-5-carboxamide]
physchem
  solubility: 200 µM (≈ 83.7 µg/mL)
VERO cell line
  IC50: > 50 µM
H37Rv-Mtb; MIC H37Rv-Mtb comparison
  Fold less active than the most potent lipophilic compounds (ND-11543, ND-11564): > 100 fold
H37Rv-Mtb; [8]
  MIC: 13 µM (≈ 5.44 µg/mL)

## CCc1nc2sc(C)cn2c1C(=O)NCc1ccc(Oc2cccc(C(F)(F)F)c2)nc1 [ND-12024, 6-Ethyl-2-methyl-N-((6-(3-(trifluoromethyl)phenoxy)yridine-3-yl)methyl)imidazo[2,1-b]thiazole-5-carboxamide]
physchem
  solubility: 50 µM (≈ 23 µg/mL)
VERO cell line
  IC50: > 50 µM
H37Rv-Mtb; [8]
  MIC: 0.21 µM (≈ 0.0967 µg/mL)

## Cc1cn2c(C(=O)NCc3ccc(Oc4cccc(C(F)(F)F)c4)nc3)c(C)nc2s1 [ND-12025, 2,6-Dimethyl-N-((6-(3-(trifluoromethyl)phenoxy)yridine-3-yl)methyl)imidazo[2,1-b]thiazole-5-carboxamide]
physchem
  solubility: 100 µM (≈ 44.6 µg/mL)
VERO cell line
  IC50: > 50 µM
H37Rv-Mtb; [8]
  MIC: 0.33 µM (≈ 0.147 µg/mL)

## CCc1nc2ccc(Cl)cn2c1C(=O)NCc1ccc(N2CCC(c3ccc(OC(F)(F)F)cc3)CC2)cc1 [Q203]
[2]
  MIC: 0.0078 µM (≈ 0.00434 µg/mL)
[3]
  MIC, intracellular, previous reports: < 0.098 µM
physchem
  solubility: 100 µM (≈ 55.7 µg/mL)
[5]
  MIC: 1.3 µM (≈ 0.724 µg/mL)
[7]
  AUC 0–24: 44,100 ng·hr/mL
VERO cell line
  IC50: > 50 µM
H37Rv-Mtb; [8]
  MIC: 0.005 µM (≈ 0.00279 µg/mL)
